Experimental findings from US11505548B2, “Heterocyclic compounds and their use for treatment of helminthic infections and diseases” (Celgene Corporation, priority 2019, dated 2022) are described below.

What is called IC50 is the concentration at which inhibition is half-maximal.

Where only a bound is given, the exact number is not on record here.

The assay deals with Onchocerca gutturosa Adult Male Worms. Description: Onchocerciasis in vitro screening model, worm motility score. The format is cell-based. Particulars: in vitro; Onchocerca gutturosa adult male worms; class A/B/C; read-out: O. gutturosa activity level (IC50 or MED).
With `COc1ccc(Nc2nnc(-c3cc(OC4CCCCC4)ccn3)s2)nc1` [Compound 233, 5-(4-(cyclo-hexyloxy)pyridin-2-y1)-N-(5-methoxypyridin-2-yl)-1,3,4-thiadiazol-2-amine], the IC50 is under 200 nM.

Consider `c1ccc(-c2ccnc(Nc3nnc(-c4ccccn4)o3)c2)cc1` [Compound 235, N-(4-phenyl-pyridin-2-yl)-5-(pyridin-2-yl)-1,3,4-oxadiazol-2-amine], for which the IC50 lay within 500 to 5000 nM. For `Cc1ccnc(Nc2nnc(-c3ncccc3C)o2)c1` [Compound 236, 5-(3-methyl-pyridin-2-yl)-N-(4-methy-lpyridin-2-yl)-1,3,4-oxadiazol-2-amine], the IC50 lay in the range of 500 to 5000 nM. As to `c1ccc(-c2ccnc(Nc3nc(-c4ccccn4)ns3)c2)cc1` [Compound 237, N-(4-phenyl-pyridin-2-yl)-3-(pyridin-2-yl)-1,2,4-thiadiazol-5-amine], the IC50 is 500 to 5000 nM. Next, `Cc1ccnc(Nc2nc(-c3ncccc3C)ns2)c1` [Compound 238, 3-(3-methyl-pyridin-2-yl)-N-(4-methyl-pyridin-2-yl)-1,2,4-thiadiazol-5-amine]: under 200 nM; `c1ccc(-c2ccnc(Nc3nnc(-c4ccccn4)s3)c2)cc1` [Compound 240, N-(4-pheny-lpyridin-2-yl)-5-(pyridin-2-yl)-1,3,4-thiadiazol-2-amine]: 500 to 5000 nM; `c1ccc(-c2ccnc(Nc3nnc(-c4ccccn4)[nH]3)c2)cc1` [Compound 241, 4-phenyl-N-(5-(pyridin-2-yl)-4H-1,2,4-triazol-3-yl) pyridin-2-amine]: under 200 nM. Next, `Cc1ccnc(Nc2nnc(-c3ncccc3C)[nH]2)c1` [Compound 242, 4-methyl-N-(5-(3-methyl-pyridin-2-yl)-4H-1,2,4-triazol-3-yl)pyridin-2-amine]: 500 to 5000 nM. As for `COc1ccc(-c2nnc(Nc3cc(OC(C)C)ccn3)s2)nc1` [Compound 243, N-(4-isoprop-oxypyridin-2-yl)-5-(5-methoxy-pyridin-2-yl)-1,3,4-thiadiazol-2-amine], the figure is 500 to 5000 nM; as for `Cc1ccnc(Nc2nnc(-c3ncccc3C)s2)c1` [Compound 244, 5-(3-methyl-pyridin-2-yl)-N-(4-methyl-pyridin-2-yl)-1,3,4-thiadiazol-2-amine], 500 to 5000 nM. `c1ccc(-c2ccnc(Nc3nc(-c4ccccn4)no3)c2)cc1` [Compound 246, N-(4-phenyl-pyridin-2-yl)-3-(pyridin-2-yl)-1,2,4-oxadiazol-5-amine]: the IC50 fell in the range of 500 to 5000 nM. Turning to `CC(=O)N(C)c1cc(C(F)(F)F)cnc1Nc1nc(-c2ccc(OC(C)C)cn2)ns1` [Compound 247, N-(2-(3-(5-isopropoxy-pyridin-2-yl)-1,2,4-thiadiazol-5-ylamino)-5-(trifluoro-methyl)pyridin-3-yl)-N-methylacetamide], the IC50 was under 200 nM.

On to `CC(C)Oc1ccc(-c2nsc(Nc3ncc(C(F)(F)F)cc3N(C)C(=O)C3CC3)n2)nc1` [Compound 248, N-(2-(3-(5-isopropoxy-pyridin-2-yl)-1,2,4-thiadiazol-5-ylamino)-5-(trifluoro-methyl)pyridin-3-yl)-N-methylcyclo-propanecarbox-amide], for which the IC50 was 500 to 5000 nM. With `CC(=O)N(C)c1cc(C(F)(F)F)cnc1Nc1nc(-c2cc3c(cn2)N(C)CC3)ns1` [Compound 249, N-methyl-N-(2-(3-(1-methyl-2,3-dihydro-1H-pyrrolo[2,3-c]pyridin-5-yl)-1,2,4-thiadiazol-5-ylamino)-5-(trifluoromethyl)pyridin-3-yl)acetamide], the IC50 was in the range of 200 to 500 nM. With `CC(C)Oc1cnc(-c2nsc(Nc3ncccc3C(=O)N3CCCC3)n2)cc1C(F)(F)F` [Compound 251, (2-(3-(5-isopropoxy-4-(trifluoromethyl)pyridin-2-yl)-1,2,4-thiadiazol-5-ylamino)pyridin-3-yl) (pyrrolidin-1-yl)methanone], the IC50 fell in the range of 500 to 5000 nM. On to `Cc1cnc(Nc2nc(-c3cc(C(N)=O)c(OC(C)C)cn3)ns2)c(C(F)(F)F)c1` [Compound 252, 5-isopropoxy-2-(5-(5-methyl-3-(trifluoro-methyl)pyridin-2-ylamino)-1,2,4-thiadiazol-3-yl)isonico-tinamide], for which the IC50 fell in the range of 500 to 5000 nM. Next, `COc1cnc(Nc2nc(-c3cc(C(N)=O)c(OC(C)C)cn3)ns2)c(C(F)(F)F)c1` [Compound 253, 5-isopropoxy-2-(5-(5-methoxy-3-(trifluoro-methyl)pyridin-2-ylamino)-1,2,4-thiadiazol-3-yl)isonico-tinamide]: 500 to 5000 nM; `Cc1cnc(Nc2nc(-c3cc(C(=O)N(C)C)c(OC(C)C)cn3)ns2)c(C(F)(F)F)c1` [Compound 254, 5-isopropoxy-N,N-dimethyl-2-(5-(5-methyl-3-(trifluoromethyl)pyridin-2-ylamino)-1,2,4-thiadiazol-3-yl)isonico-tinamide]: 500 to 5000 nM; `COc1ccc(-c2nnc(Nc3cc(OC(C)C)ccn3)o2)nc1` [Compound 255, N-(4-isoprop-oxypyridin-2-yl)-5-(5-methoxy-pyridin-2-yl)-1,3,4-oxadiazol-2-amine]: 500 to 5000 nM. Regarding `COc1ccc(-c2nnc(Nc3cc(OC(C)C)ccn3)[nH]2)nc1` [Compound 257, 4-isopropoxy-N-(5-(5-methoxy-pyridin-2-yl)-4H-1,2,4-triazol-3-yl)pyridin-2-amine], the IC50 was 500 to 5000 nM. In the case of `Cc1cccnc1Nc1nnc(-c2ccc(OC3CCOCC3)cn2)[nH]1` [Compound 258, 3-methyl-N-(5-(5-(tetrahydro-2H-pyran-4-yloxy)pyridin-2-yl)-4H-1,2,4-triazol-3-yl) pyridin-2-amine], the IC50 is under 200 nM.

Regarding `CC(C)Oc1cnc(-c2nsc(Nc3ncccc3C(=O)N(C)C)n2)cc1C(F)F` [Compound 260, 2-(3-(4-(difluoro-methyl)-5-isopropoxy-pyridin-2-yl)-1,2,4-thiadiazol-5-ylamino)-N,N-dimethyl-nicotinamide], the IC50 fell in the range of 500 to 5000 nM. As for `CC(=O)N(C)c1cccnc1Nc1nc(-c2cc(C(F)F)c(OC(C)C)cn2)ns1` [Compound 261, N-(2-(3-(4-(difluoromethyl)-5-isopropoxy-pyridin-2-yl)-1,2,4-thiadiazol-5-ylamino)pyridin-3-yl)-N-methylacetamide], the figure is 500 to 5000 nM.

On to `CC(C)Oc1ccc(-c2nsc(Nc3ncccc3C(=O)N(C)C3CC3)n2)nc1` [Compound 262, N-cyclo-propyl-2-(3-(5-isopropoxy-pyridin-2-yl)-1,2,4-thiadiazol-5-ylamino)-N-methyl-nicotinamide], for which the IC50 fell in the range of 500 to 5000 nM. As for `CC(C)Oc1cnc(-c2nsc(Nc3ncccc3C(=O)N(C)C3CC3)n2)cc1C(F)(F)F` [Compound 263, N-cyclo-propyl-2-(3-(5-isopropoxy-4-(trifluoro-methyl)pyridin-2-yl)-1,2,4-thiadiazol-5-ylamino)-N-methyl-nicotinamide], the figure is 500 to 5000 nM; as for `COc1cnc(Nc2nc(-c3cc(C(=O)N(C)C)c(OC(C)C)cn3)ns2)c(C(F)(F)F)c1` [Compound 264, 5-isopropoxy-2-(5-(5-methoxy-3-(trifluoro-methyl)pyridin-2-ylamino)-1,2,4-thiadiazol-3-yl)-N,N-dimethyliso-nicotinamide], 500 to 5000 nM.
